According to the supplement of paper PMC10307832:

Columns and labels:
Experiment in all cases: relative viability (nuclei count vs DMSO), 5 days (fraction); higher = more cells survive
AZ3146 + Pemetrexed = compound: CN1CCC(CC1)OC2=CC(=C(C=C2)NC3=NC=C4C(=N3)N(C(=O)N4C)C5CCCC5)OC [AZ3146] + Nc1nc2[nH]cc(CCc3ccc(C(=O)N[C@@H](CCC(=O)O)C(=O)O)cc3)c2c(=O)[nH]1 [Pemetrexed] (partner 0.2 µM)
In short: (§1)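 A single step with final 0.05% Triton X-100, 1% formaldehyde and 1 ug/ml Hoechst fixed the cells and stained nuclei 5 days after treatment. Lung cancer cell lines in 1536-well plates had been treated by pin tool the day after seeding with one drug alone or a fixed anchor-drug dose plus five library-drug doses (not always all listed) in √10 steps, and nuclei were counted on 4× images. Relative viability is the ratio of nuclei in treated wells to nuclei in vehicle wells, taken as the median of duplicate plates.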

AZ3146 + Lapatinib = compound: CN1CCC(CC1)OC2=CC(=C(C=C2)NC3=NC=C4C(=N3)N(C(=O)N4C)C5CCCC5)OC [AZ3146] + CS(=O)(=O)CCNCc1ccc(-c2ccc3ncnc(Nc4ccc(OCc5cccc(F)c5)c(Cl)c4)c3c2)o1 [Lapatinib] (partner 2 µM)
In short: as §1

GSK-J4 + Foretinib = compound: CCOC(=O)CCNc1cc(N2CCc3ccccc3CC2)nc(-c2ccccn2)n1 [GSK-J4] + COc1cc2c(Oc3ccc(NC(=O)C4(C(=O)Nc5ccc(F)cc5)CC4)cc3F)ccnc2cc1OCCCN1CCOCC1 [Foretinib] (partner 0.25 µM)
In short: as §1

AZ3146 + OSI-027 = compound: CN1CCC(CC1)OC2=CC(=C(C=C2)NC3=NC=C4C(=N3)N(C(=O)N4C)C5CCCC5)OC [AZ3146] + COc1cccc2cc(-c3nc([C@H]4CC[C@H](C(=O)O)CC4)n4ncnc(N)c34)[nH]c12 [OSI-027] (partner 0.5 µM)
In short: as §1

Row | Cell Line | relative viability (AZ3146 + Pemetrexed; first compound 0.08 µM) | relative viability (AZ3146 + Pemetrexed; first compound 0.253 µM) | relative viability (AZ3146 + Pemetrexed; first compound 0.8 µM) | relative viability (AZ3146 + Pemetrexed; first compound 2.53 µM) | relative viability (AZ3146 + Pemetrexed; first compound 8 µM) | relative viability (AZ3146 + Lapatinib; first compound 0.08 µM) | relative viability (AZ3146 + Lapatinib; first compound 0.253 µM) | relative viability (AZ3146 + Lapatinib; first compound 0.8 µM) | relative viability (AZ3146 + Lapatinib; first compound 2.53 µM) | relative viability (AZ3146 + Lapatinib; first compound 8 µM) | relative viability (GSK-J4 + Foretinib; first compound 0.5 µM) | relative viability (GSK-J4 + Foretinib; first compound 1.581 µM) | relative viability (GSK-J4 + Foretinib; first compound 5 µM) | relative viability (GSK-J4 + Foretinib; first compound 15.81 µM) | relative viability (GSK-J4 + Foretinib; first compound 50 µM) | relative viability (AZ3146 + OSI-027; first compound 0.08 µM) | relative viability (AZ3146 + OSI-027; first compound 0.253 µM) | relative viability (AZ3146 + OSI-027; first compound 0.8 µM) | relative viability (AZ3146 + OSI-027; first compound 2.53 µM) | relative viability (AZ3146 + OSI-027; first compound 8 µM)
1 | 201T | 0.275 | 0.328 | 0.32 | 0.331 | 0.303 | 1.03 | 1.06 | 1 | 1.06 | 1.06 | 1.1 | 1.09 | 1.07 | 0.923 | 1.06 | 0.679 | 0.567 | 0.726 | 0.765 | 0.685
2 | A549 |  |  |  |  |  | 0.977 | 0.948 | 0.924 | 0.872 | 0.109 | 0.84 | 0.874 | 0.907 | 0.911 | 0.828 |  |  |  |  | 
3 | A-427 | 0.898 | 0.923 | 0.976 | 0.926 | 0.766 | 0.988 | 1.03 | 0.957 | 0.969 | 1.01 | 1.05 |  | 1.11 | 0.532 | 0.218 | 0.431 | 0.586 | 0.429 | 0.574 | 0.338
4 | ABC-1 |  |  |  |  |  | 1.24 | 1.15 | 1.33 | 1.31 | 1.11 | 1.04 | 0.63 | 1.06 | 0.989 | 0.846 | 0.466 | 0.484 | 0.454 | 0.614 | 0.472
5 | BEN |  | 0.641 | 0.651 | 0.75 | 0.8 |  | 0.683 | 0.805 | 0.659 | 0.681 | 0.857 | 0.593 |  | 0.588 | 0.53 |  | 0.306 | 0.206 | 0.285 | 0.309
6 | CAL-12T | 1.1 | 1.15 | 1.29 | 1.33 | 1.13 | 0.701 |  | 0.588 | 0.771 | 0.56 | 1.11 | 0.703 | 1.11 | 1.04 | 1.02 | 0.798 | 0.652 | 0.612 | 0.805 | 0.655
7 | Calu-6 |  |  |  |  |  | 1.07 | 1.16 | 1.01 | 1 | 0.397 | 0.83 | 0.867 | 0.867 | 0.839 | 0.822 |  |  |  |  | 
8 | ChaGo-K-1 | 0.562 | 0.248 | 0.254 | 0.258 | 0.248 |  |  |  |  |  | 0.995 | 0.907 | 0.971 | 0.895 | 0.72 | 0.572 | 0.611 | 0.539 | 0.581 | 0.366
9 | EBC-1 |  |  |  |  |  | 0.2 | 0.218 | 0.183 | 0.201 | 0.208 | 0.0939 | 0.0899 | 0.0897 | 0.0966 | 0.103 |  |  |  |  | 
10 | HCC-44 | 0.601 | 0.654 | 0.687 | 0.698 | 0.654 | 0.907 | 0.953 | 0.999 | 1.01 | 0.971 |  |  |  |  |  | 0.484 | 0.427 | 0.416 | 0.622 | 0.558
11 | IA-LM |  |  |  |  |  |  | 0.955 | 0.718 | 0.72 | 0.49 | 1.09 | 1.15 | 1.32 | 1.16 | 0.334 |  |  |  |  | 
12 | LCLC-103H | 0.429 | 0.439 | 0.444 | 0.49 | 0.499 |  |  |  |  |  | 0.8 | 0.617 | 0.789 | 0.593 | 0.52 | 0.423 | 0.474 | 0.529 | 0.456 | 0.501
13 | NCI-H441 | 0.256 | 0.251 | 0.251 | 0.266 | 0.274 |  |  |  |  |  | 0.962 | 0.875 | 1.1 | 0.906 | 0.759 | 0.611 | 0.656 | 0.528 | 0.663 | 0.529
14 | NCI-H522 | 0.917 | 0.905 | 0.898 | 1.09 | 0.968 |  |  |  |  |  |  |  |  |  |  | 0.882 | 0.664 | 0.527 | 0.68 | 0.759
15 | NCI-H727 |  |  |  |  |  | 0.745 | 0.557 | 0.79 | 1.29 | 0.869 | 0.808 | 0.835 | 1.03 | 0.99 | 0.518 | 0.674 | 0.56 | 0.595 | 0.671 | 0.413
16 | NCI-H1299 |  |  |  |  |  | 0.892 | 0.97 | 0.985 | 0.958 | 0.787 | 1.06 | 1.03 | 0.994 | 1.07 | 1.11 |  |  |  |  | 
17 | NCI-H1623 |  |  |  |  |  |  |  |  |  |  | 0.93 | 0.727 | 0.925 | 0.562 | 0.807 | 0.39 | 0.482 | 0.458 | 0.405 | 0.402
18 | NCI-H1648 |  |  | 1.02 | 0.801 | 0.62 |  |  |  |  |  |  |  |  |  |  |  | 0.268 | 0.233 | 0.253 | 0.302
19 | NCI-H1703 |  |  |  |  |  | 1.16 | 1.26 | 0.953 | 0.892 | 0.372 | 0.319 | 0.403 | 0.337 | 0.325 | 0.304 |  |  |  |  | 
20 | NCI-H1792 | 0.606 | 0.871 | 0.68 | 1.04 | 0.701 | 0.854 | 1.09 | 0.868 | 0.936 | 0.954 |  |  |  |  |  | 0.638 | 0.735 |  | 0.699 | 0.714
21 | NCI-H2342 | 0.69 | 0.821 | 0.807 | 0.756 | 0.752 |  |  |  |  |  | 1.02 | 1.02 | 1.11 | 1.01 | 1.11 | 0.592 | 0.536 | 0.59 | 0.508 | 0.61
22 | SW 900 | 0.459 |  | 0.445 | 0.492 | 0.429 |  |  |  |  |  | 0.681 | 0.836 | 1.05 | 0.591 | 0.431 | 0.459 | 0.491 | 0.613 | 0.549 | 0.387
